The assay concerns the target Human DGAT2 (Homo sapiens (Human), UniProt Q96PD7). Kind of assay: DGAT2 Enzymatic Activity Assay (triolein formation, LC/MS/MS). Conditions: hDGAT2 Sf-9 membrane prep; 25 μM diolein, 10 μM oleoyl-CoA; room temperature. It counts as biochemical. The gist of the method:
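Membranes from Sf-9 cells infected with untagged hDGAT2 baculovirus, 10 ng/μL, at room temperature in 100 mM Tris.Cl pH 7.0, 20 mM MgCl2, 5% ethanol with 25 μM diolein and 10 μM oleoyl-CoA. Triolein quantified by LC/MS/MS against spiked internal standard; IC50 from 4-parameter sigmoidal fit.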

pIC50: −log10 of the molar value.

As usually defined, the pIC50 is the negative decadic logarithm of the IC50, by convention in mol/L. Low values mean a large IC50, high ones a small IC50.

Human DGAT2, sequence (Q96PD7 whole entry): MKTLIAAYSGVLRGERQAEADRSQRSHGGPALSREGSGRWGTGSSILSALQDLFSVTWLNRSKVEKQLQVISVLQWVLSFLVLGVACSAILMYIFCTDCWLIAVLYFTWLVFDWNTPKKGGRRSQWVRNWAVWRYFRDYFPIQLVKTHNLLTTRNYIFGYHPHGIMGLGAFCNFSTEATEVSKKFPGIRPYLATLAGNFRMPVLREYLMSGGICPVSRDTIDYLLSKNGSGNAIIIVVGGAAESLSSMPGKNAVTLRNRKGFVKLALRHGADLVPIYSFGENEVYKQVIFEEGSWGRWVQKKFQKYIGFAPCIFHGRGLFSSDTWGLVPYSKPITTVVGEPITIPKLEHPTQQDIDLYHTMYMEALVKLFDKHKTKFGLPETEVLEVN

Compound `COc1cccc(-c2nn(-c3ccc(F)cc3)c3cc(C(=O)NC4(C)CCS(=O)(=O)C4)ccc23)c1` (single isomer, unassigned) [Example 144-A, 1-(4-fluorophenyl)-3-(3-methoxyphenyl)-N-(3-methyl-1,1-dioxidotetrahydrothiophen-3-yl)-1H-indazole-6-carboxamide] showed a pIC50 of 8.24.

For the compound `CC1(NC(=O)c2ccc3c(-c4cccc(C5CC5)c4)nn(-c4ccc(F)cc4)c3c2)CCS(=O)(=O)C1` (single isomer, unassigned) [Example 145-A, 3-(3-cyclopropylphenyl)-1-(4-fluorophenyl)-N-(3-methyl-1,1-dioxidotetrahydrothiophen-3-yl)-1H-indazole-6-carboxamide], the pIC50 was 8.68.

`CC1(NC(=O)c2ccc3c(-c4cncc(C#N)c4)nn(-c4ccc(F)cc4)c3c2)CCS(=O)(=O)C1` (single isomer, unassigned) [Example 146-A, 3-(5-cyanopyridin-3-yl)-1-(4-fluorophenyl)-N-(3-methyl-1,1-dioxidotetrahydrothiophen-3-yl)-1H-indazole-6-carboxamide] showed a pIC50 of 7.20.

The compound `CC1(NC(=O)c2ccc3c(-c4cccc(OCC(F)(F)F)c4)nn(-c4ccc(F)cc4)c3c2)CCS(=O)(=O)C1` (single isomer, unassigned) [Example 147-A, 1-(4-fluorophenyl)-N-(3-methyl-1,1-dioxidotetrahydrothiophen-3-yl)-3-[3-(2,2,2-trifluoroethoxy)phenyl]-1H-indazole-6-carboxamide] showed a pIC50 of 8.24.

As for `CC1(NC(=O)c2ccc3c(-c4cc(C#N)ccc4F)nn(-c4ccc(F)cc4)c3c2)CCS(=O)(=O)C1` (single isomer, unassigned) [Example 151-A, 3-(5-cyano-2-fluorophenyl)-1-(4-fluorophenyl)-N-(3-methyl-1,1-dioxidotetrahydrothiophen-3-yl)-1H-indazole-6-carboxamide], the pIC50 is 8.35.

Take `CC1(NC(=O)c2ccc3c(-c4ccc(Cl)nc4F)nn(-c4ccc(F)cc4)c3c2)CCS(=O)(=O)C1` (single isomer, unassigned) [Example 152-A, 3-(6-chloro-2-fluoropyridin-3-yl)-1-(4-fluorophenyl)-N-(3-methyl-1,1-dioxidotetrahydrothiophen-3-yl)-1H-indazole-6-carboxamide]: the pIC50 is 8.35.

In the case of `CC1(NC(=O)c2ccc3c(-c4cncc(F)c4)nn(-c4ccc(F)cc4)c3c2)CCS(=O)(=O)C1` (single isomer, unassigned) [Example 153-A, 1-(4-fluorophenyl)-3-(5-fluoropyridin-3-yl)-N-(3-methyl-1,1-dioxidotetrahydrothiophen-3-yl)-1H-indazole-6-carboxamide], the negative logarithm of the IC50 (pIC50) is 7.05.

Turning to `CC1(NC(=O)c2ccc3c(-c4cccnc4F)nn(-c4ccc(F)cc4)c3c2)CCS(=O)(=O)C1` (single isomer, unassigned) [Example 154-A, 1-(4-fluorophenyl)-3-(2-fluoropyridin-3-yl)-N-(3-methyl-1,1-dioxidotetrahydrothiophen-3-yl)-1H-indazole-6-carboxamide], the pIC50 was 7.77.

The compound `COc1ccc(-c2nn(-c3ccc(F)cc3)c3cc(C(=O)NC4(C)CCS(=O)(=O)C4)ccc23)cn1` (single isomer, unassigned) [Example 155-A, 1-(4-fluorophenyl)-3-(6-methoxypyridin-3-yl)-N-(3-methyl-1,1-dioxidotetrahydrothiophen-3-yl)-1H-indazole-6-carboxamide] showed a pIC50 of 6.45.

In turn, `Cc1cccc(-c2nn(-c3ccc(F)cc3)c3cc(C(=O)NC4(C)CCS(=O)(=O)C4)ccc23)c1` (single isomer, unassigned) [Example 156-A, 1-(4-fluorophenyl)-N-(3-methyl-1,1-dioxidotetrahydrothiophen-3-yl)-3-(3-methylphenyl)-1H-indazole-6-carboxamide] had a pIC50 of 7.96.

With `CC1(NC(=O)c2ccc3c(-c4cc(Cl)cc(Cl)c4)nn(-c4ccc(F)cc4)c3c2)CCS(=O)(=O)C1` (single isomer, unassigned) [Example 157-A, 3-(3,5-dichlorophenyl)-1-(4-fluorophenyl)-N-(3-methyl-1,1-dioxidotetrahydrothiophen-3-yl)-1H-indazole-6-carboxamide], the negative logarithm of the IC50 (pIC50) is 7.21.

On to `CC1(NC(=O)c2ccc3c(-c4cccc(Cl)c4)nn(-c4ccc(F)cc4)c3c2)CCS(=O)(=O)C1` (single isomer, unassigned) [Example 158-A, 3-(3-chlorophenyl)-1-(4-fluorophenyl)-N-(3-methyl-1,1-dioxidotetrahydrothiophen-3-yl)-1H-indazole-6-carboxamide], for which the pIC50 was 7.51.

In the case of `CC1(NC(=O)c2ccc3c(-c4ccnc(C(F)(F)F)c4)nn(-c4ccc(F)cc4)c3c2)CCS(=O)(=O)C1` (single isomer, unassigned) [Example 159-A, 1-(4-fluorophenyl)-N-(3-methyl-1,1-dioxidotetrahydrothiophen-3-yl)-3-[2-(trifluoromethyl)pyridin-4-yl]-1H-indazole-6-carboxamide], the pIC50 is 6.33.

The compound `CC1(NC(=O)c2ccc3c(-c4cc(C(F)(F)F)ccc4Cl)nn(-c4ccc(F)cc4)c3c2)CCS(=O)(=O)C1` (single isomer, unassigned) [Example 160-A, 3-[2-chloro-5-(trifluoromethyl)phenyl]-1-(4-fluorophenyl)-N-(3-methyl-1,1-dioxidotetrahydrothiophen-3-yl)-1H-indazole-6-carboxamide] gave a pIC50 of 8.16.

The compound `COc1cc(C#N)cc(-c2nn(-c3ccc(F)cc3)c3cc(C(=O)NC4(C)CCS(=O)(=O)C4)ccc23)c1F` (single isomer, unassigned) [Example 161-B, 3-(5-cyano-2-fluoro-3-methoxyphenyl)-1-(4-fluorophenyl)-N-(3-methyl-1,1-dioxidotetrahydrothiophen-3-yl)-1H-indazole-6-carboxamide] gave a pIC50 of 7.55.

`CC1(NC(=O)c2ccc3c(-c4ccccc4)nn(-c4ccc(F)cc4)c3c2)CCS(=O)(=O)C1` (single isomer, unassigned) [Example 162-A, 1-(4-fluorophenyl)-N-(3-methyl-1,1-dioxidotetrahydrothiophen-3-yl)-3-phenyl-1H-indazole-6-carboxamide] showed a pIC50 of 6.80.

`O=C(NC1CCS(=O)(=O)C1)c1ccc2c(-c3ccc[n+]([O-])c3)nn(-c3ccc(F)cc3)c2c1` (single isomer, unassigned) [Example 166-A, 3-(6-((1,1-dioxidotetrahydrothiophen-3-yl)carbamoyl)-1-(4-fluorophenyl)-1H-indazol-3-yl)pyridine 1-oxide] gave a pIC50 of 6.07.

With `CC1(NC(=O)c2ccc3c(-c4ccccc4Cl)nn(-c4ccc(Cl)cn4)c3c2)CCS(=O)(=O)C1` (single isomer, unassigned) [Example 171-A, 3-(2-Chlorophenyl)-1-(5-chloropyridin-2-yl)-N-(3-methyl-1,1-dioxidotetrahydrothiophen-3-yl)-1H-indazole-6-carboxamide], the negative logarithm of the IC50 (pIC50) is 7.82.

Take `CC1(NC(=O)c2ccc3c(-c4ccccc4Cl)nn(-c4ccc(F)cn4)c3c2)CCS(=O)(=O)C1` (single isomer, unassigned) [Example 172-A]: the pIC50 was 7.41.

`CC1(NC(=O)c2ccc3c(-c4ccccc4Cl)nn(-c4ccc(F)cn4)c3c2)CCS(=O)(=O)C1` (single isomer, unassigned) [Example 172-B, 3-(2-chlorophenyl)-1-(5-fluoropyridin-2-yl)-N-(3-methyl-1,1-dioxidotetrahydrothiophen-3-yl)-1H-indazole-6-carboxamide] had a pIC50 of 7.25.

In turn, `O=C(NC1CCS(=O)(=O)C1)c1ccc2c(-c3ccccc3Cl)nn(-c3ccc(Cl)cn3)c2c1` (single isomer, unassigned) [Example 173-A, 3-(2-chlorophenyl)-1-(5-chloropyridin-2-yl)-N-(1,1-dioxidotetrahydrothiophen-3-yl)-1H-indazole-6-carboxamide] had a pIC50 of 7.64.

`CC1(NC(=O)c2ccc3c(-c4ccccc4Cl)nn(-c4ccccn4)c3c2)CCS(=O)(=O)C1` (single isomer, unassigned) [Example 174-A, 3-(2-chlorophenyl)-N-(3-methyl-1,1-dioxidotetrahydrothiophen-3-yl)-1-pyridin-2-yl-1H-indazole-6-carboxamide] had a pIC50 of 7.15.

With `CC1(NC(=O)c2ccc3c(-c4ccccc4Cl)nn(-c4ccccn4)c3c2)CCS(=O)(=O)C1` (single isomer, unassigned) [Example 174-B, 3-(2-chlorophenyl)-N-(3-methyl-1,1-dioxidotetrahydrothiophen-3-yl)-1-pyridin-2-yl-1H-indazole-6-carboxamide], the pIC50 is 7.12.

Take `O=C(NC1CCS(=O)(=O)C1)c1ccc2c(-c3ccccc3Cl)nn(-c3ccccn3)c2c1` (single isomer, unassigned) [Example 175-A, 3-(2-chlorophenyl)-N-(1,1-dioxidotetrahydrothiophen-3-yl)-1-pyridin-2-yl-1H-indazole-6-carboxamide]: the negative logarithm of the IC50 (pIC50) is 6.47.

The compound `O=C(NC1CCS(=O)(=O)C1)c1ccc2c(-c3ccccc3Cl)nn(-c3ccc(F)cn3)c2c1` (single isomer, unassigned) [Example 176-A, 3-(2-chlorophenyl)-N-(1,1-dioxidotetrahydrothiophen-3-yl)-1-(5-fluoropyridin-2-yl)-1H-indazole-6-carboxamide] had a pIC50 of 6.60.

Turning to `CC1(NC(=O)c2ccc3c(-c4cccc(C#N)c4)nn(-c4ccc(F)cn4)c3c2)CCS(=O)(=O)C1` (single isomer, unassigned) [Example 178-B, 3-(3-cyanophenyl)-1-(5-fluoropyridin-2-yl)-N-(3-methyl-1,1-dioxidotetrahydrothiophen-3-yl)-1H-indazole-6-carboxamide], the negative logarithm of the IC50 (pIC50) was 7.49.

The values above are taken from US11104690B2, “Indazole derivatives useful as inhibitors of diacylglyceride O-acyltransferase 2” (Merck Sharp & Dohme Corp., priority 2016, dated 2021).
